Results on three compounds are retold here after patent publication US5281616A, “Porphyrin and phthalocyanine antiviral compositions” (priority 1992, dated 1994).

Read-outs that look alike come from different tables or passages of the source. A value given as a limit tells only on which side of the number the result lay.

In experiment [1] the test system is reverse transcriptase of avian myeloblastosis virus. The settings on record: 10^-4 M; cited from earlier work.
Experiment [2] addresses HIV-1 reverse transcriptase (Human immunodeficiency virus type 1 group M subtype B, UniProt P04585). Nature of the experiment: Inhibition of purified HIV-1 reverse transcriptase (cell free). Format: biochemical. As for the experimental part:
Methodology for Testing Antiviral Drugs for Inhibition of HIV-1 Reverse Transcriptase
Cells and viruses are cultured as described above. […] 12,431-439 (1973). Cocktail, template, compound to be tested and reverse transcriptase are mixed together on ice, then incubated for one hour at 37° C.. The DNA synthesized is acid precipitated and the radioactivity measured, as described by Eriksson, B., et al., Antimicrobial Agents and Chemotherapy 31, 600-604 ([…]).

Experiment [3] concerns reverse transcriptase of Rauscher murine leukemia virus. Conditions: cited from earlier work.
Experiment [4] has as its system HIV-1 (strain LAV-1). The experiment can be described thus: Inhibition of HIV replication in PBM cells (supernatant RT activity). Format: cell-based.
Experiment [5] deals with influenza A. The settings on record: upon exposure to light; concentrations as low as; cited from earlier work.
Experiment [6] has as its system herpes simplex viruses. Conditions: upon exposure to light; concentrations as low as; cited from earlier work.
Experiment [7] deals with herpes simplex virus type 2. Nature of the experiment: Plaque assay in Vero cells, HSV type 2. Format: cell-based, HSV-2. Conditions: Human alphaherpesvirus 2, Vero cells plaque assay. The method, then: (§1) Methodology for Testing Antiviral Drugs for Inhibition of Replication of HSV-1 and HSV-2
(§2) Compounds are tested for inhibition of herpes simplex virus type 1 and herpes simplex virus type 2 using the method of Schinazi, et al., Antimicrobial Agents and Chemotherapy 22, 499-507 (1982). This is a plaque assay using Vero cells (African green monkey cells) infected with HSV.

Experiment [8] concerns herpes simplex virus type 1. Nature of the experiment: Plaque assay in Vero cells, HSV type 1. In kind it is cell-based, HSV-1. The settings on record: Human alphaherpesvirus 1, Vero cells plaque assay. As for the experimental part: as §1, §2

For “Hemin, bovine, (chloro protoporphyrin IX Fe(III)) [FePPIXCl]”, the “Inhibition of reverse transcriptase activity (in words)” value in experiment [1] is “not”. Further, the EC50 in experiment [2] (purified enzyme, one hour at 37° C., read-out: EC50, inhibition of HIV reverse transcriptase) worked out at 20.5 µM; in experiment [4] (human PBM cells, RT activity in supernatant five days after infection, read-out: EC50, inhibition of HIV replication in PBM cells), 49.3 µM. The “Concentration inhibiting reverse transcriptase activity” value in experiment [3] was 10^-4 M.

Consider `CC1=C(CCC(=O)O)c2cc3[nH]c(cc4nc(cc5[nH]c(cc1n2)c(C)c5C(C)O)C(C)=C4C(C)O)c(C)c3CCC(=O)O` (stereo not shown) [hematoporphyrin], for which the “Concentration inhibiting in vitro replication of influenza A” value in experiment [5] is 0.5 µg/mL. Also, the “Concentration inhibiting in vitro replication of herpes simplex viruses” value in experiment [6] is 0.5 µg/mL.

For the compound `C1=Cc2nc1c(-c1ccccc1)c1ccc([nH]1)c(-c1ccccc1)c1nc(c(-c3ccccc3)c3ccc([nH]3)c2-c2ccccc2)C=C1` [TPP, Meso-tetraphenylporphine], the half-maximal effective concentration (EC50) in experiment [7] (Dark, read-out: EC50 HSV type 2 Dark) is above 10 µM; in experiment [7] (Light, read-out: EC50 HSV type 2 Light), above 10 µM; in experiment [2], above 100 µM; in experiment [4] (Human immunodeficiency virus 1, PBMC, 120 h, read-out: EC50, inhibition of HIV replication in PBM cells, human PBM cells, RT activity in supernatant five days after infection), 13.7 µM; in experiment [4] (read-out: EC50, inhibition of HIV replication in PBM cells, human PBM cells, RT activity in supernatant five days after infection) it was above 10 µM; in experiment [8] (Dark, read-out: EC50 HSV type 1 Dark) it was above 10 µM. In addition, in experiment [8] (Light, read-out: EC50 HSV type 1 Light), the EC50 was determined as 10 µM.

As usually defined, the EC50 is the concentration at which the effect is half-maximal.
